Measurements as given in ChEMBL document CHEMBL1649134, “Occurrence of efflux mechanism and cephalosporinase variant in a population of Enterobacter aerogenes and Klebsiella pneumoniae isolates producing extended-spectrum beta-lactamases” (2009).
In brackets after ≈: the same amount, converted by molar mass. Activity calls are given as the source filed them. The rule behind the calls is not given here. Peptide text beside a SMILES is read from it. * marks the point of attachment. βNA = c1ccc2cc(N*)ccc2c1

Key:
Escherichia coli [1] = assay: microbe, parasite or virus in culture; conditions: DH5[alpha]
Description: Antimicrobial activity against multidrug resistant Escherichia coli DH5[alpha] harboring pACM204 plasmid by broth dilution method

Klebsiella pneumoniae [2] = assay: Antimicrobial activity against multidrug resistant Klebsiella pneumoniae isolate 5 by broth dilution method; format: functional
Klebsiella aerogenes [3] = assay: Antimicrobial activity against multidrug resistant Enterobacter aerogenes isolate 3 by broth dilution method; format: functional
Klebsiella pneumoniae [4] = assay: Antimicrobial activity against multidrug resistant Klebsiella pneumoniae isolate 3 by broth dilution method; format: functional
Klebsiella pneumoniae [5] = assay: Antimicrobial activity against multidrug resistant Klebsiella pneumoniae isolate 11 by broth dilution method; format: functional
Klebsiella pneumoniae [6] = assay: Antimicrobial activity against multidrug resistant Klebsiella pneumoniae isolate 8 by broth dilution method; format: functional
Klebsiella aerogenes [7] = assay: Antimicrobial activity against multidrug resistant Enterobacter aerogenes isolate 25 by broth dilution method; format: functional
Klebsiella aerogenes [8] = assay: Antimicrobial activity against multidrug resistant Enterobacter aerogenes isolate 10 by broth dilution method; format: functional
Klebsiella aerogenes [9] = assay: Antimicrobial activity against multidrug resistant Enterobacter aerogenes isolate 8 by broth dilution method; format: functional
Klebsiella pneumoniae [10] = assay: Antimicrobial activity against multidrug resistant Klebsiella pneumoniae isolate 13 by broth dilution method; format: functional
Klebsiella pneumoniae [11] = assay: Antimicrobial activity against multidrug resistant Klebsiella pneumoniae isolate 12 by broth dilution method; format: functional
Klebsiella pneumoniae [12] = assay: Antimicrobial activity against multidrug resistant Klebsiella pneumoniae isolate 9 by broth dilution method; format: functional
Klebsiella aerogenes [13] = assay: Antimicrobial activity against multidrug resistant Enterobacter aerogenes ATCC 15038 by broth dilution method; format: functional
Klebsiella aerogenes [14] = assay: Antimicrobial activity against multidrug resistant Enterobacter aerogenes ATCC 15038 harboring pACM204 plasmid by broth dilution method; format: functional
Klebsiella pneumoniae [15] = assay: Antimicrobial activity against multidrug resistant Klebsiella pneumoniae isolate 4 by broth dilution method; format: functional
Klebsiella aerogenes [16] = assay: Antimicrobial activity against multidrug resistant Enterobacter aerogenes isolate 9 by broth dilution method; format: functional
Klebsiella pneumoniae [17] = assay: Antimicrobial activity against multidrug resistant Klebsiella pneumoniae isolate 16 by broth dilution method; format: functional
Klebsiella aerogenes [18] = assay: Antimicrobial activity against multidrug resistant Enterobacter aerogenes isolate 21 by broth dilution method; format: functional
Klebsiella aerogenes [19] = assay: Antimicrobial activity against multidrug resistant Enterobacter aerogenes isolate 7 by broth dilution method; format: functional
Klebsiella aerogenes [20] = assay: Antimicrobial activity against multidrug resistant Enterobacter aerogenes ATCC 15038 harboring pDrive plasmid by broth dilution method; format: functional
Klebsiella pneumoniae [21] = assay: Antimicrobial activity against multidrug resistant Klebsiella pneumoniae isolate 7 by broth dilution method; format: functional
Klebsiella aerogenes [22] = assay: Antimicrobial activity against multidrug resistant Enterobacter aerogenes isolate 15 by broth dilution method; format: functional
Klebsiella aerogenes [23] = assay: Antimicrobial activity against multidrug resistant Enterobacter aerogenes isolate 4 by broth dilution method; format: functional
Escherichia coli [24] = assay: microbe, parasite or virus in culture; conditions: ATCC 35218
Description: Antimicrobial activity against multidrug resistant Escherichia coli ATCC 35218 harboring pDrive plasmid expressing ampC gene by broth dilution method

Klebsiella pneumoniae [25] = assay: Antimicrobial activity against multidrug resistant Klebsiella pneumoniae isolate 1 by broth dilution method; format: functional
Klebsiella pneumoniae [26] = assay: Antimicrobial activity against multidrug resistant Klebsiella pneumoniae isolate 2 by broth dilution method; format: functional
Klebsiella aerogenes [27] = assay: Antimicrobial activity against multidrug resistant Enterobacter aerogenes isolate 19 by broth dilution method; format: functional
Klebsiella aerogenes [28] = assay: Antimicrobial activity against multidrug resistant Enterobacter aerogenes isolate 6 by broth dilution method; format: functional
Klebsiella aerogenes [29] = assay: Antimicrobial activity against multidrug resistant Enterobacter aerogenes isolate 20 by broth dilution method; format: functional
Escherichia coli [30] = assay: microbe, parasite or virus in culture; conditions: DH5[alpha]; remark: listed apart in the source
Description: Antimicrobial activity against multidrug resistant Escherichia coli DH5[alpha] harboring pDrive plasmid by broth dilution method

Klebsiella aerogenes [31] = assay: Antimicrobial activity against multidrug resistant Enterobacter aerogenes isolate 17 by broth dilution method; format: functional
Klebsiella aerogenes [32] = assay: Antimicrobial activity against multidrug resistant Enterobacter aerogenes isolate 16 by broth dilution method; format: functional
Klebsiella aerogenes [33] = assay: Antimicrobial activity against multidrug resistant Enterobacter aerogenes isolate 23 by broth dilution method; format: functional
Klebsiella aerogenes [34] = assay: Antimicrobial activity against multidrug resistant Enterobacter aerogenes isolate 1 by broth dilution method; format: functional
Klebsiella aerogenes [35] = assay: Antimicrobial activity against multidrug resistant Enterobacter aerogenes isolate 18 by broth dilution method; format: functional
Klebsiella aerogenes [36] = assay: Antimicrobial activity against multidrug resistant Enterobacter aerogenes isolate 13 by broth dilution method; format: functional
Escherichia coli [37] = assay: Antimicrobial activity against multidrug resistant Escherichia coli ATCC 35218 by broth dilution method; format: functional
Escherichia coli [38] = assay: microbe, parasite or virus in culture; conditions: DH5[alpha]; remark: listed apart in the source
Description: Antimicrobial activity against multidrug resistant Escherichia coli DH5[alpha] harboring pDrive plasmid expressing ampC gene by broth dilution method

Klebsiella pneumoniae [39] = assay: Antimicrobial activity against multidrug resistant Klebsiella pneumoniae isolate 10 by broth dilution method; format: functional
Klebsiella aerogenes [40] = assay: Antimicrobial activity against multidrug resistant Enterobacter aerogenes isolate 24 by broth dilution method; format: functional
Klebsiella aerogenes [41] = assay: Antimicrobial activity against multidrug resistant Enterobacter aerogenes isolate 11 by broth dilution method; format: functional
Klebsiella aerogenes [42] = assay: Antimicrobial activity against multidrug resistant Enterobacter aerogenes isolate 22 by broth dilution method; format: functional
Klebsiella aerogenes [43] = assay: Antimicrobial activity against multidrug resistant Enterobacter aerogenes isolate 14 by broth dilution method; format: functional
Escherichia coli [44] = assay: microbe, parasite or virus in culture; conditions: DH5[alpha]; remark: listed apart in the source
Description: Antimicrobial activity against multidrug resistant Escherichia coli DH5[alpha] by broth dilution method

Klebsiella aerogenes [45] = assay: Antimicrobial activity against multidrug resistant Enterobacter aerogenes ATCC 15038 harboring pDrive plasmid expressing ampC gene by broth dilution method; format: functional
Klebsiella aerogenes [46] = assay: Antimicrobial activity against multidrug resistant Enterobacter aerogenes isolate 27 by broth dilution method; format: functional
Klebsiella aerogenes [47] = assay: Antimicrobial activity against multidrug resistant Enterobacter aerogenes isolate 5 by broth dilution method; format: functional
Klebsiella aerogenes [48] = assay: Antimicrobial activity against multidrug resistant Enterobacter aerogenes isolate 12 by broth dilution method; format: functional
Klebsiella aerogenes [49] = assay: Antimicrobial activity against multidrug resistant Enterobacter aerogenes isolate 26 by broth dilution method; format: functional
Klebsiella pneumoniae [50] = assay: Antimicrobial activity against multidrug resistant Klebsiella pneumoniae ATCC 11296 by broth dilution method; format: functional
Klebsiella pneumoniae [51] = assay: Antimicrobial activity against multidrug resistant Klebsiella pneumoniae isolate 6 by broth dilution method; format: functional
Escherichia coli [52] = assay: microbe, parasite or virus in culture; conditions: ATCC 35218; remark: listed apart in the source
Description: Antimicrobial activity against multidrug resistant Escherichia coli ATCC 35218 harboring pDrive plasmid by broth dilution method

Klebsiella pneumoniae [53] = assay: Antimicrobial activity against multidrug resistant Klebsiella pneumoniae isolate 15 by broth dilution method; format: functional
Klebsiella aerogenes [54] = assay: Antimicrobial activity against multidrug resistant Enterobacter aerogenes isolate 2 by broth dilution method; format: functional
Klebsiella pneumoniae [55] = assay: Inhibition of multidrug resistance efflux pump in Klebsiella pneumoniae isolate 14 assessed as increase in intracellular [14C]chloramphenicol accumulation relative to untreated control
Klebsiella pneumoniae [56] = assay: Inhibition of multidrug resistance efflux pump in Klebsiella pneumoniae isolate 13 assessed as increase in intracellular [14C]chloramphenicol accumulation relative to untreated control
Klebsiella aerogenes [57] = assay: Inhibition of multidrug resistance efflux pump in Enterobacter aerogenes isolate 17 assessed as increase in intracellular [14C]chloramphenicol accumulation relative to untreated control; format: cell-based
Klebsiella aerogenes [58] = assay: Inhibition of multidrug resistance efflux pump in Enterobacter aerogenes isolate 6 assessed as increase in intracellular [14C]chloramphenicol accumulation relative to untreated control; format: cell-based
Klebsiella aerogenes [59] = assay: Inhibition of multidrug resistance efflux pump in Enterobacter aerogenes isolate 13 assessed as increase in intracellular [14C]chloramphenicol accumulation relative to untreated control; format: cell-based

CO/N=C(\C(=O)N[C@@H]1C(=O)N2C(C(=O)[O-])=C(C[N+]3(C)CCCC3)CS[C@H]12)c1csc(N)n1
MIC (Escherichia coli [1]): 0.25 µg/mL (≈ 0.52 µM)
MIC (Klebsiella pneumoniae [2]): 64 µg/mL (≈ 133 µM)
MIC (Klebsiella aerogenes [3]): 16 µg/mL (≈ 33.3 µM)
MIC (Klebsiella pneumoniae [4]): 64 µg/mL (≈ 133 µM)
MIC (Klebsiella pneumoniae [5]): 64 µg/mL (≈ 133 µM)
MIC (Klebsiella pneumoniae [6]): 64 µg/mL (≈ 133 µM)
MIC (Klebsiella aerogenes [7]): 64 µg/mL (≈ 133 µM)
MIC (Klebsiella aerogenes [8]): 16 µg/mL (≈ 33.3 µM)
MIC (Klebsiella aerogenes [9]): 64 µg/mL (≈ 133 µM)
MIC (Klebsiella pneumoniae [10]): 2 µg/mL (≈ 4.16 µM)
MIC (Klebsiella pneumoniae [11]): 16 µg/mL (≈ 33.3 µM)
MIC (Klebsiella pneumoniae [12]): 64 µg/mL (≈ 133 µM)
MIC (Klebsiella aerogenes [13]): 0.03 µg/mL (≈ 0.0624 µM)
MIC (Klebsiella aerogenes [14]): 0.25 µg/mL (≈ 0.52 µM)
MIC (Klebsiella pneumoniae [15]): 64 µg/mL (≈ 133 µM)
MIC (Klebsiella aerogenes [16]): 32 µg/mL (≈ 66.6 µM)
MIC (Klebsiella pneumoniae [17]): 64 µg/mL (≈ 133 µM)
MIC (Klebsiella aerogenes [18]): 128 µg/mL (≈ 266 µM)
MIC (Klebsiella aerogenes [19]): 64 µg/mL (≈ 133 µM)
MIC (Klebsiella aerogenes [20]): 0.25 µg/mL (≈ 0.52 µM)
MIC (Klebsiella pneumoniae [21]): 64 µg/mL (≈ 133 µM)
MIC (Klebsiella aerogenes [22]): 16 µg/mL (≈ 33.3 µM)
MIC (Klebsiella aerogenes [23]): 32 µg/mL (≈ 66.6 µM)
MIC (Escherichia coli [24]): 32 µg/mL (≈ 66.6 µM)
MIC (Klebsiella pneumoniae [25]): 64 µg/mL (≈ 133 µM)
MIC (Klebsiella pneumoniae [26]): 64 µg/mL (≈ 133 µM)
MIC (Klebsiella aerogenes [27]): 64 µg/mL (≈ 133 µM)
MIC (Klebsiella aerogenes [28]): 4 µg/mL (≈ 8.32 µM)
MIC (Klebsiella aerogenes [29]): 64 µg/mL (≈ 133 µM)
MIC (Escherichia coli [30]): 0.5 µg/mL (≈ 1.04 µM)
MIC (Klebsiella aerogenes [31]): 64 µg/mL (≈ 133 µM)
MIC (Klebsiella aerogenes [32]): 64 µg/mL (≈ 133 µM)
MIC (Klebsiella aerogenes [33]): 64 µg/mL (≈ 133 µM)
MIC (Klebsiella aerogenes [34]): 32 µg/mL (≈ 66.6 µM)
MIC (Klebsiella aerogenes [35]): 32 µg/mL (≈ 66.6 µM)
MIC (Klebsiella aerogenes [36]): 64 µg/mL (≈ 133 µM)
MIC (Escherichia coli [37]): 0.03 µg/mL (≈ 0.0624 µM)
MIC (Escherichia coli [38]): 32 µg/mL (≈ 66.6 µM)
MIC (Klebsiella pneumoniae [39]): 64 µg/mL (≈ 133 µM)
MIC (Klebsiella aerogenes [40]): 128 µg/mL (≈ 266 µM)
MIC (Klebsiella aerogenes [41]): 64 µg/mL (≈ 133 µM)
MIC (Klebsiella aerogenes [42]): 64 µg/mL (≈ 133 µM)
MIC (Klebsiella aerogenes [43]): 64 µg/mL (≈ 133 µM)
MIC (Escherichia coli [44]): 0.125 µg/mL (≈ 0.26 µM)
MIC (Klebsiella aerogenes [45]): 32 µg/mL (≈ 66.6 µM)
MIC (Klebsiella aerogenes [46]): 128 µg/mL (≈ 266 µM)
MIC (Klebsiella aerogenes [47]): 64 µg/mL (≈ 133 µM)
MIC (Klebsiella aerogenes [48]): 128 µg/mL (≈ 266 µM)
MIC (Klebsiella aerogenes [49]): 2 µg/mL (≈ 4.16 µM)
MIC (Klebsiella pneumoniae [50]): 0.125 µg/mL (≈ 0.26 µM)
MIC (Klebsiella pneumoniae [51]): 16 µg/mL (≈ 33.3 µM)
MIC (Escherichia coli [52]): 0.5 µg/mL (≈ 1.04 µM)
MIC (Klebsiella pneumoniae [53]): 32 µg/mL (≈ 66.6 µM)
MIC (Klebsiella aerogenes [54]): 32 µg/mL (≈ 66.6 µM)

N#CC(C#N)=NNc1cccc(Cl)c1 [CARBONYL CYANIDE M-CHLOROPHENYLHYDRAZONE]
fold change (FC) (Klebsiella pneumoniae [55]): 2
fold change (FC) (Klebsiella pneumoniae [56]): 2
fold change (FC) (Klebsiella aerogenes [57]): 2
fold change (FC) (Klebsiella aerogenes [58]): 2
fold change (FC) (Klebsiella aerogenes [59]): 2

N=C(N)NCCC[C@H](NC(=O)[C@@H](N)Cc1ccccc1)C(=O)Nc1ccc2ccccc2c1 (H-Phe-Arg-βNA)
inhibition (Klebsiella pneumoniae [55]): Active
inhibition (Klebsiella pneumoniae [56]): Active
inhibition (Klebsiella aerogenes [57]): Active
inhibition (Klebsiella aerogenes [58]): Active
inhibition (Klebsiella aerogenes [59]): Active
